According to PubChem BioAssay (NCI):
“And” between values parts separate entries of the source, which are not always exact repeats. Identical values can stand only once.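 Exposure lasted 48 hours, with cells grown in 96-well plates and compounds tested at five concentrations. At the GI50, growth is halved. TGI marks complete inhibition of growth.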

Legend:
Test in all cases: NCI-60 cell line screen, 48 h
[1] = system: KM12 colon
[2] = system: DLD-1 colon
[3] = system: NCI-H226 lung
[4] = system: LOX IMVI melanoma
[5] = system: HCT-15 colon
[6] = system: DMS 273 small cell lung
[7] = system: UO-31 renal
[8] = system: 786-0 renal
[9] = system: NCI-H23 lung
[10] = system: SK-MEL-2 melanoma

Compound	TGI [1]	TGI [2] [µM]	TGI [3]	TGI [4]	TGI [5]	TGI [6] [µM]	TGI [7]	TGI [8]	TGI [9]	TGI [10]	GI50 [1]	GI50 [10] [µM]	GI50 [3]	GI50 [4]	GI50 [5]	GI50 [7]	GI50 [8]	GI50 [9]
NNC(=O)CC(=O)Nc1ccccc1F	> 100 µM	> 100	> 100 µM	> 100 µM	> 100 µM	> 100	> 100 µM	> 100 µM	> 100 µM									
Cn1c(=O)c(C(c2ccccc2)c2c(O)c3ccccc3n(C)c2=O)c(O)c2ccccc21	> 100 µM	> 100	65.9 µM	> 100 µM		> 100	> 100 µM	> 100 µM	> 100 µM	> 100 µM								
CC1SC2=NC3=C(c4ccccc4C3=O)C(c3ccc(Br)cc3)N2C1=O (stereo not given)	> 100 µM	> 100	> 100 µM		> 100 µM	> 100	> 100 µM	> 100 µM	> 100 µM	> 100 µM								
COC1=NN2C(OC)(c3ccccc3)c3c(-c4ccccc4)sc(-c4ccccc4)c3C2(c2ccccc2)S1 (stereo not given)	> 100 µM	> 100		> 100 µM	> 100 µM	> 100	> 100 µM	> 100 µM	> 100 µM	> 100 µM								
COc1ccc(-c2cc(-c3ccccc3)c(C#N)c(=O)[nH]2)cc1	> 100 µM	> 100	> 100 µM	> 100 µM	> 100 µM	> 100	> 100 µM	> 100 µM	> 100 µM									
COc1cc(C)c(C(=O)/C=C/c2cc(OC)c(O)c(OC)c2)cc1O	50 µM	35.1		> 100 µM		70.1	57.5 µM	39.7 µM	36.4 µM	38.8 µM								
CC(C)O/C=C1\C(=O)C2(SCCS2)[C@H]2CCCC[C@@H]12	> 100 µM	> 100	> 100 µM		> 100 µM	> 100	> 100 µM	> 100 µM		> 100 µM								
O=C1Cc2ccccc2N1/N=C\c1ccc(O)cc1	> 100 µM		> 100 µM	> 100 µM	> 100 µM	> 100	> 100 µM	> 100 µM	> 100 µM	> 100 µM								
c1ccc(Cn2cc3c(c2)-c2oncc2CC3)cc1	9.2 µM		99.1 µM	> 57.9 µM	> 100 µM		97.1 µM	> 30.8 µM	> 100 µM	87.5 µM	0.521 µM	5.29	5.91 µM	1.66 µM	0.863 µM	4.23 µM	1.86 µM	1.77 µM
C(=C1\CCC/C(=C/c2ccccc2)C1=NNc1ccccc1)/c1ccccc1	> 100 µM	> 100		> 100 µM	> 100 µM	> 100	> 100 µM	> 100 µM	> 100 µM	> 100 µM								
O=C(Cc1ccccc1)Nc1nnc(CCSCCc2nnc(NC(=O)Cc3ccccc3)s2)s1	> 100 µM		97.4 µM	11.1 µM	> 100 µM		> 100 µM	54.6 µM	> 100 µM	> 100 µM	4.61 µM	16.5	29.9 µM	1.72 µM	> 100 µM	81.8 µM	6.11 µM	28.8 µM
CC(C)[C@@H](C(=O)O[C@@H]1/C=C/C(=O)O[C@@H](C)CCC/C=C/[C@@H]2C[C@H](O)C[C@H]21)[N+](C)(C)C	> 100 µM		> 100 µM	> 100 µM	> 100 µM		> 100 µM	> 100 µM	> 100 µM	> 100 µM	> 100 µM	> 100	> 100 µM	> 100 µM	> 100 µM	> 100 µM	> 100 µM	> 100 µM
Cc1sc2nc(-c3ccccn3)c(/C=N/N=C(N)N)n2c1C	15.6 µM		15.5 µM	8.26 µM	13.5 µM		20.9 µM	12.6 µM	15.3 µM	21.4 µM	7.85 µM	7.99	5.74 µM	4.01 µM	4.98 µM	8.94 µM	4.84 µM	6.37 µM
Nc1c(C(=O)Nc2cccc3ccccc23)sc2nc3c(cc12)CCCC3	> 100 µM		> 100 µM	> 100 µM	> 100 µM		> 100 µM	> 100 µM	> 100 µM	> 100 µM	0.675 µM	1.04	17.5 µM	1.75 µM	0.565 µM	3.47 µM	1.11 µM	3.43 µM
O=C(N/C(=C\c1ccc([N+](=O)[O-])cc1)c1nc2[nH]c(=S)[nH]c(=O)c2[nH]1)c1ccccc1	> 100 µM	> 100			> 100 µM		> 100 µM	> 100 µM	> 100 µM	> 100 µM								
OC(COc1ccc(Cl)cc1Cl)CN1CCCC1 (stereo not given)	> 100 µM		> 100 µM	> 100 µM	> 100 µM		> 100 µM	> 100 µM	> 100 µM	> 100 µM								
CCN(CC)c1ccc(/C=C/C(=O)c2cccc(NS(C)(=O)=O)c2)cc1	> 100 µM		> 100 µM	> 100 µM	> 100 µM		> 100 µM	> 100 µM	> 100 µM	> 100 µM	3.18 µM	> 100	74 µM	3.13 µM	3.44 µM	> 100 µM	4.98 µM	4.51 µM
Cc1cc[c-]cc1.Fc1c[c-]c(-c2ccccn2)c(F)c1.N#CCC[PH+](CCC#N)c1ccccc1.[Pt+2]	13.2 µM		7.06 µM	5.18 µM	11.6 µM		2.82 µM	18.8 µM	12.9 µM	6.57 µM	3.39 µM	2.41	2.62 µM	2.26 µM	2.89 µM	1.45 µM	3.57 µM	3.45 µM
NC1=CC(=O)C(=O)c2cccnc21	25.8 µM		42.5 µM	4.38 µM	23.4 µM		17.7 µM	28 µM	7.84 µM	15.6 µM	12 µM	3.85	14.7 µM	1.7 µM	5.37 µM	2.48 µM	14.8 µM	2.06 µM

Compound	TGI [1]	TGI [2] [µM]	TGI [3]	TGI [4]	TGI [5]	TGI [6] [µM]	TGI [7]	TGI [8]	TGI [9]	TGI [10]	GI50 [1]	GI50 [10] [µM]	GI50 [3]	GI50 [4]	GI50 [5]	GI50 [7]	GI50 [8]	GI50 [9]
O=C1OCC2=C1C(c1cccc(F)c1)c1cc3c(cc1N2CCO)OCCO3 (stereo not given)	> 50 µM		> 50 µM	> 50 µM	> 50 µM		> 50 µM	> 50 µM	> 50 µM	> 50 µM	0.172 µM	0.276	3.18 µM	0.265 µM	0.193 µM	0.276 µM	0.208 µM	0.35 µM
CCCNC(=O)c1cc2ccccc2cc1C(=O)OC	> 100 µM	> 100	> 100 µM		> 100 µM	> 100	> 100 µM	> 100 µM	> 100 µM	> 100 µM								
O=C1Nc2ccccc2C12CC(c1ccccc1)=NN2 (stereo not given)	> 100 µM		> 100 µM	87.4 µM	> 100 µM		> 100 µM	65.2 µM	> 100 µM	46.5 µM	4.76 µM	5.46	21.9 µM	6.46 µM	4.17 µM	14.6 µM	6.36 µM	9.07 µM
CCOC(=O)CNC(SC)=C(C#N)C#N	> 100 µM	> 100	> 100 µM	> 100 µM	> 100 µM	> 100	> 100 µM	> 100 µM	> 100 µM									
O=C1C2C(C(=O)[N]1[Hg][c]1ccccc1)C1(Cl)C(Cl)=C(Cl)C2(Cl)C1(Cl)Cl (stereo not given)	21.5 µM		4.18 µM	2.39 µM	2.2 µM		3.57 µM	3.48 µM	3.32 µM	3.15 µM	8.7 µM	1.49	1.59 µM	1.02 µM	0.583 µM	1.73 µM	1.85 µM	1.49 µM
O=C1c2c(c3c4ccccc4n4c3c3c2c2ccccc2n3C/C=C\C4)C(=O)N1Cc1ccccc1	> 100 µM	> 100	> 100 µM	> 100 µM	> 100 µM		> 100 µM	> 100 µM	> 100 µM									
O=C1CC(c2ccccc2)Cc2nc3ccc(Cl)cc3cc21 (stereo not given)	22.7 µM		> 23.6 µM	26.2 µM	66.6 µM		> 93 µM	> 74.7 µM	> 100 µM	> 100 µM	0.342 µM	0.207	0.795 µM	0.626 µM	0.511 µM	0.263 µM	0.815 µM	0.562 µM
COc1ccc(CNc2nc3ccccc3nc2-c2cccs2)cc1OC			> 100 µM		> 100 µM	> 100	> 100 µM	> 100 µM	> 100 µM	> 100 µM								
CN(C)CCCNC(=O)c1cc2c3ccccc3[nH]c2c2ncccc12	67.3 µM		> 100 µM	23.8 µM	58.5 µM		> 100 µM	42.4 µM	29.2 µM	31.7 µM	19.8 µM	13.8	19.9 µM	8.34 µM	11.6 µM	10.9 µM	11.7 µM	14.6 µM
CSc1nc2c(nc(N)n2C2OCC(O)C(O)C2O)c(=O)[nH]1 (stereo not given)	> 100 µM	> 100	> 100 µM	> 100 µM			> 100 µM	> 100 µM	> 100 µM									
O=C1c2cnccc2Cc2cccc3c2N1c1ccccc1S3	66 µM	> 100		57.5 µM	> 100 µM	78.2		97.8 µM	52.7 µM	32.5 µM								
O=C1C[C@@H](c2ccccc2)NCCCCN(O)CCCN1	> 100 µM		> 100 µM	> 100 µM	> 100 µM		> 100 µM	> 100 µM	> 100 µM	> 100 µM								
CC1=C[C@H]2c3c(c(O)c(O)c4oc5cc(O)cc(O)c5c(=O)c34)[C@H](c3cc(O)c(O)c4oc5cc(O)cc(O)c5c(=O)c34)[C@H]2C(C)(C)C1	3.02 µM and 3.57 µM		5.88 µM and 5.25 µM	2.36 µM and 2.19 µM	16.4 µM and 14 µM		3.28 µM and 8.22 µM	6.66 µM and 6.33 µM	2.95 µM and 3.39 µM	5.17 µM and 6.41 µM	1.04 µM and 1.51 µM	2.41	2.16 µM and 1.99 µM	1.12 µM and 0.87 µM	2.75 µM and 1.62 µM	1.38 µM and 1.55 µM	2.43 µM and 2.16 µM	1.04 µM and 1.21 µM
COc1ccc(N2CCN(CC(=O)N3CCN(c4nnc(-c5ccccc5)c(-c5ccccc5)n4)CC3)CC2)cc1	> 100 µM		> 100 µM	> 100 µM	> 100 µM		> 90.6 µM	> 100 µM	> 100 µM	> 100 µM	5.67 µM	51.3	> 100 µM	11.6 µM	6.07 µM	3.94 µM	4.91 µM	6.06 µM
COC(=O)Nc1nc2c(OC)c(OC)c(OC)cc2[nH]1	> 100 µM		> 100 µM	> 100 µM	> 100 µM		> 100 µM	> 100 µM	> 100 µM	> 91.6 µM	5.48 µM	15.1	61.4 µM	49 µM	5.71 µM	36.4 µM	66.4 µM	39.1 µM
COc1cc(C/C=C/c2ccccc2)c(OC)cc1O	30.7 µM		79.3 µM	37.4 µM	37.2 µM		31.4 µM	27.7 µM	42.8 µM	52.3 µM								
Cc1cc(C)cc(Nc2nccc(-c3c(-c4ccc(F)cc4)ncn3C3CCNCC3)n2)c1	3.57 µM		5.12 µM	2.88 µM	2.85 µM		2.15 µM	2.79 µM	4.21 µM	4.09 µM	1.74 µM	2.04	1.67 µM	1.54 µM	1.15 µM	0.692 µM	1.31 µM	1.88 µM
OCCc1cnco1	> 100 µM	> 100	> 100 µM	> 100 µM		> 100		> 100 µM	> 100 µM									
CSc1nc(Cl)c(Br)c(Nc2c[nH]c(=O)[nH]c2=O)n1	67.8 µM		41.7 µM	39.3 µM	27.6 µM		37.5 µM	27.1 µM	35.7 µM	44.4 µM								
